Results from ChEMBL document CHEMBL1201862, “PubChem BioAssay data set” (2004).
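Compound exposure: 48 hours, 5 concentrations, 96-well plates. GI50 marks 50% less growth.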 Activity calls are given as the source filed them. No stated cut-off is given here; in the data, active = GI50 up to about 1.1 µM and inactive = higher.

Key:
Assay in all cases: NCI-60 cell line screen, 48 h
[1] = test system: HCT-116
[2] = test system: HOP-92
[3] = test system: K562
[4] = test system: M14
[5] = test system: Malme-3M
[6] = test system: NCI-H460
[7] = test system: OVCAR-5
[8] = test system: OVCAR-8
[9] = test system: RPMI-8226
[10] = test system: RXF 393
[11] = test system: SF-295
[12] = test system: SF-539
[13] = test system: SW-620
[14] = test system: UACC-62
[15] = test system: EKVX
[16] = test system: SK-MEL-2
[17] = test system: SK-OV-3
[18] = test system: SNB-75

Measured: GI50

OCC1OC(NO)C(O)C(O)C1O (stereo not drawn)
inactive: [1] > 100 µM | [2] > 100 µM | [3] > 100 µM | [4] > 100 µM | [5] > 100 µM | [6] > 100 µM | [7] > 100 µM | [8] > 100 µM | [9] > 100 µM | [10] > 100 µM | [11] > 100 µM | [12] > 100 µM | [13] > 100 µM | [14] > 100 µM

CCOC(=O)C(=O)/C=C(\C)Nc1c(NC2OCC(OC(C)=O)C(OC(C)=O)C2OC(C)=O)nc(SC)[nH]c1=O (stereo not drawn)
inactive: [15] > 100 µM | [1] > 100 µM | [2] > 100 µM | [3] > 100 µM | [4] > 100 µM | [5] > 100 µM | [6] > 100 µM | [7] > 100 µM | [8] > 100 µM | [9] > 100 µM | [10] > 100 µM | [11] > 100 µM | [16] > 100 µM | [17] > 100 µM | [18] > 100 µM | [13] > 100 µM | [14] > 100 µM

Cc1cc2c(c(C#N)c1C)NC(=O)C(CC(=O)O)C2=O (stereo not drawn)
inactive: [15] > 100 µM | [1] > 100 µM | [2] > 100 µM | [3] > 100 µM | [4] > 100 µM | [5] > 100 µM | [6] > 100 µM | [7] > 100 µM | [8] > 100 µM | [9] > 100 µM | [10] > 100 µM | [11] > 100 µM | [12] > 100 µM | [16] > 100 µM | [17] > 100 µM | [18] > 100 µM | [13] > 100 µM | [14] > 100 µM

O=C(Cn1cc(I)c(C(=O)NCC(O)CO)n1)NCC(O)CO (stereo not drawn)
inactive: [15] > 100 µM | [1] > 100 µM | [2] > 100 µM | [3] > 100 µM | [4] > 100 µM | [5] > 100 µM | [6] > 100 µM | [8] > 100 µM | [9] > 100 µM | [10] > 100 µM | [11] > 100 µM | [12] > 100 µM | [16] > 100 µM | [17] > 100 µM | [18] > 100 µM | [13] > 100 µM | [14] > 100 µM

CCCCCCCCCCCCCP(=O)(OC)OC
inactive: [15] 19.4 µM | [1] 19.6 µM | [2] 16.9 µM | [3] 23.2 µM | [4] 19.9 µM | [5] 22.5 µM | [6] 17.1 µM | [7] 16.5 µM | [8] 17 µM | [9] 24.3 µM | [10] 31.8 µM | [11] 21.5 µM | [12] 17 µM | [16] 17.5 µM | [17] 19 µM | [18] 21.2 µM | [13] 17.7 µM | [14] 17.9 µM

Nc1ccc(C(=O)N/C(=C\c2cccc([N+](=O)[O-])c2)c2nc3ccccc3[nH]2)cc1
inactive: [15] > 88.1 µM | [1] 41.4 µM | [2] 23.6 µM | [3] > 100 µM | [4] > 100 µM | [5] 57.3 µM | [6] 74.8 µM | [7] > 100 µM | [8] 33.1 µM | [9] > 100 µM | [10] 24.9 µM | [11] 28.4 µM | [12] 22.8 µM | [16] 37.2 µM | [17] 29.2 µM | [18] 23.3 µM | [13] > 100 µM | [14] 46 µM

O=C(O)C(C(=O)C(=O)C(C(=O)O)c1ccc(Cl)cc1)c1ccc(Cl)cc1 (stereo not drawn)
inactive: [15] 3.27 µM | [1] 3.1 µM | [2] 3.11 µM | [3] 2.57 µM | [4] 4.45 µM | [5] 2.5 µM | [6] 3.46 µM | [7] 4.25 µM | [8] 2.25 µM | [9] 2.13 µM | [10] 3.92 µM | [11] 8.65 µM | [12] 2.15 µM | [17] 5.89 µM | [18] 3.32 µM | [13] 3.98 µM | [14] 1.87 µM

CCCCCCCCCCCCCC(=O)CC(=O)c1c(O)cccc1O
inactive: [15] 30.6 µM | [1] 43.6 µM | [2] 22.4 µM | [3] 21 µM | [4] 44.7 µM | [5] 28.8 µM | [6] 36.1 µM | [7] 46.6 µM | [8] 44.3 µM | [9] 25.5 µM | [10] > 100 µM | [11] 42.4 µM | [12] 49.5 µM | [16] 19.2 µM | [17] 38.6 µM | [18] 39.5 µM | [13] 23.6 µM | [14] 47.3 µM

C[Si](C)(C)CN1C(=O)c2ccccc2C1(O)c1ccccc1 (stereo not drawn)
inactive: [15] 91 µM | [1] 48 µM | [2] 44.6 µM | [3] 40.1 µM | [4] > 100 µM | [5] > 100 µM | [6] 65.6 µM | [7] > 100 µM | [8] > 100 µM | [10] 75.2 µM | [11] 64.4 µM | [12] > 100 µM | [16] 97.1 µM | [18] 84.7 µM | [13] > 100 µM | [14] 62.7 µM

CC(=O)C=C1Nc2ccccc2N1
inactive: [15] > 100 µM | [1] > 100 µM | [3] > 100 µM | [4] > 100 µM | [5] > 100 µM | [6] > 100 µM | [7] > 100 µM | [8] > 100 µM | [9] > 100 µM | [10] > 100 µM | [11] > 100 µM | [12] > 100 µM | [16] > 100 µM | [18] 36.9 µM | [13] > 100 µM | [14] > 100 µM

CCCN/C(N)=N/C#N
inactive: [15] > 100 µM | [1] 67 µM | [2] > 100 µM | [3] 60.3 µM | [4] > 100 µM | [5] > 100 µM | [6] > 100 µM | [7] > 100 µM | [8] > 100 µM | [9] > 100 µM | [10] > 100 µM | [11] > 100 µM | [12] > 100 µM | [16] > 100 µM | [17] > 100 µM | [18] > 100 µM | [13] 13.6 µM | [14] > 100 µM

CC(=O)c1ccc(NC(=O)COC(=O)c2cccc3c(=O)c4ccccc4[nH]c23)cc1
inactive: [15] > 100 µM | [1] 12.2 µM | [2] 25.9 µM | [3] > 100 µM | [4] 31.4 µM | [5] 42.5 µM | [6] 22.6 µM | [8] 9.2 µM | [10] 18 µM | [11] 15.8 µM | [12] 8.91 µM | [17] 67.8 µM | [18] 10.1 µM | [13] 52.8 µM | [14] 24.9 µM

COc1cccc(C=O)c1C(=O)c1cc(O)ccc1O
inactive: [15] 18.5 µM | [1] 20.1 µM | [2] 17.7 µM | [3] > 10 µM | [4] 17.9 µM | [5] 20.4 µM | [6] > 100 µM | [7] > 100 µM | [8] 20.3 µM | [10] 17.9 µM | [11] > 100 µM | [12] > 100 µM | [16] > 100 µM | [17] > 100 µM | [18] > 95.3 µM | [13] 17.1 µM | [14] 54.8 µM

C=C1C(=O)c2cc3c(cc2C(c2cc(OC)c(OC)c(OC)c2)[C@@H]1C(=O)O)OCO3 (stereo partly drawn)
inactive: [15] > 100 µM | [1] 48.4 µM | [2] 15.5 µM | [3] 32.1 µM | [4] 28.1 µM | [5] 50.6 µM | [6] 37.1 µM | [8] > 100 µM | [9] 39.3 µM | [10] 43.9 µM | [11] 38.3 µM | [12] 63.7 µM | [17] 42.6 µM | [18] 20.5 µM | [13] 53.2 µM | [14] 27 µM

CC12CC[C@H](O)C(C)(C)[C@H]1CC[C@](C)(O)C2COc1ccc2ccc(=O)oc2c1 (stereo partly drawn)
inactive: [15] > 100 µM | [1] 50.9 µM | [2] > 100 µM | [3] 71 µM | [4] > 100 µM | [5] 73.6 µM | [6] > 100 µM | [8] > 100 µM | [9] 99.1 µM | [10] > 100 µM | [11] > 100 µM | [12] > 100 µM | [16] > 100 µM | [17] > 100 µM | [18] 62.2 µM | [13] > 100 µM | [14] 64.4 µM

Cc1ccc2[nH]c(Sc3c([N+](=O)[O-])ncn3C)nc2c1
inactive: [15] 26.1 µM | [1] 21.1 µM | [2] 16.1 µM | [4] 17.6 µM | [5] 15.8 µM | [6] 35.2 µM | [7] 46.8 µM | [8] 14.4 µM | [9] 25.1 µM | [10] 16.1 µM | [11] > 100 µM | [12] 18.1 µM | [17] 30 µM | [18] 25.3 µM | [13] 25.3 µM | [14] 19 µM
